Consider 14 molecules from patent US10000500B2 (PROMEGA CORPORATION, priority 2016, dated 2018).

A word on the Km: it is the substrate concentration at which the rate is half of its maximum.

Holding throughout (type): biochemical
The target of experiment [1] is T1, NANOLUC® Luciferase (Oplophorus gracilirostris, UniProt Q9GV45, A31E/A60N/A81I/F95D/I117V/K70R/L54V/L99Q/M102K/N193R/P142E/Q151K/Q38R/Q45L/V71I/Y165I). Briefly: Luminescence assay with purified NANOLUC luciferase (Example 7). To be noted: bioluminescence with NANOLUC luciferase. The method, then:
Each compound to be screened was dissolved in DMSO (5 mM) and then further diluted to 100 uM in NANO-GLO® Luciferase Assay Buffer. Each diluted substrate was then combined in equal volumes with purified NANOLUC® Luciferase diluted into CO2 independent media+10% FBS. Initial light output for each substrate was measured in a GLOMAXI-Multi+luminometer three minutes after substrate addition and then at five minute intervals as a means to determine signal half-life.
The synthesized coelenterazine analogues (compounds of formula (I) and (II)) were evaluated for their suitability as luciferase substrates. NANOLUC® luciferase was employed for the screening because it is a small (19 kDa), stable, and particularly bright enzyme.

In experiment [2] the target is T1, NANOLUC® Luciferase. Briefly: Spectral measurements in various buffers with NANOLUC luciferase (Example 10). To be noted: for shift of the NanoLuc luciferase spectral properties: FIGS. 3A-3C and 4A-4D; for NanoGlo (spectral peak, Table 4) / OptiMEM (spectral peak, Table 4) / High / Low / Peak / Width: NanoLuc; for NanoGlo (spectral peak, Table 4): NanoGlo buffer; for High / Low / Peak / Width: emission spectrum. How it is done: (§1) Each compound to be screened was diluted to a concentration of 100 uM (50 uM final concentration) in Renilla Glo Luciferase Assay buffer (Promega Corporation), NANO-GLO Luciferase Assay Buffer (Promega Corporation), or 20 uM (10 uM final) in OptiMEM+0.1% FBS. NANOLUC® luciferase and Renilla luciferase were serially diluted to 4, 40, and 400 ng/ml in OptiMEM+0.1% FBS. 50 ul of each compound dilution was mixed with 50 ul enzyme dilution and incubated for 1 minute at room temperature. Autoluminescence spectra of AS-353 was measured by adding 20 uM of substrate to OptiMEM+20% FBS and then 50 ul of this dilution was combined with 50 ul of OptiMEM+0.1% FBS. Spectral measurements were measured using a Tecan M-1000 luminometer. ([…]).

For experiment [3], the target named is T2, Renilla luciferase (Renilla reniformis, UniProt P27652).
T2 sequence (P27652 1-311): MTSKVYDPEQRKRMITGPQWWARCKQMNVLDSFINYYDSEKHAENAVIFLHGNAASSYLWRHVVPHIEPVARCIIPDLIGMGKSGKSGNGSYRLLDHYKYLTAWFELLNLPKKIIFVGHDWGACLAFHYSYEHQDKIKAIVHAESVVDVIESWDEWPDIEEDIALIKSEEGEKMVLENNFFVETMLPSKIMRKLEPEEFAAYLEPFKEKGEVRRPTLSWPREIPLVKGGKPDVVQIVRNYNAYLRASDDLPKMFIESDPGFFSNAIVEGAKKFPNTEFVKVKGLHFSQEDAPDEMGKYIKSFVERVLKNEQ
Briefly: Spectral measurements in various buffers with Renilla luciferase (Example 10). To be noted: for High / Low / Peak / Width: emission spectrum. How it is done: as §1

Experiment [4] has as its target T2, Renilla luciferase. As to the kind of experiment: Km and Vmax substrate titration with Renilla luciferase (Example 8). The method, then: (§2) Each compound to be screened was diluted to a concentration of 100 uM in Renilla Glo Luciferase Assay buffer (Promega Corporation) and then further diluted to 2×serial dilution in Renilla Glo Luciferase Assay Buffer. NANOLUC® luciferase and Renilla luciferase were diluted to a concentration of 4 ng/ml in OptiMEM+0.1% FBS. 50 ul of each compound dilution was then mixed with 50 ul of each enzyme dilution and incubated for 1 minute at room temperature. Light output for each compound was measured on a GLOMAX®-Multi+ luminometer. Km and Vmax were calculated for each enzyme/substrate combination using a GraphPad Prism Michaelis-Menten non-linear fit (FIGS. 1A-ID).

Experiment [5] deals with T1, NANOLUC® Luciferase. Briefly: Km and Vmax substrate titration with NanoLuc luciferase (Example 8). How it is done:
as §2

Where [6] appears, read: Renilla luciferase 4 ng/ml, Renilla Glo buffer, Michaelis-Menten fit.

T1 sequence (Q9GV45 28-196 with tags or gaps with the stated changes limits assumed): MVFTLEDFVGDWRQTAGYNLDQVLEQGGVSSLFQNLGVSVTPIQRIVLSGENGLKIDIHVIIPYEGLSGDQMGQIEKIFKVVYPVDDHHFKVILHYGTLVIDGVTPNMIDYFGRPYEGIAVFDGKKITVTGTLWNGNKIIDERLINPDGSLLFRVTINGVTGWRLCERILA

As to `O=c1c(Cc2ccco2)nc2c(-c3ccccc3)[nH]c(-c3ccccc3)cn1-2` [AS-174, 2-(furan-2-ylmethyl)-6,8-diphenylimidazo[1,2-a]pyrazin-3(7H)-one], in experiment [1], the “λmax, nm” value came out at 496 nm. Further, in experiment [2], the “shift of the NanoLuc luciferase spectral properties” value (“shift” for short) is reported as “shifted the NanoLuc® luciferase spectral properties to red”; the “NanoGlo (spectral peak, Table 4)” value is given as 493; the “OptiMEM (spectral peak, Table 4)” value was determined as 490. In experiment [2] (NanoGlo Buffer), the High came out at 541, the Low is 460, the Peak stood at 493 and the Width turned out to be 81. For the same molecule, in experiment [2] (OptiMEM + 0.1% FBS), the High amounted to 535, the Low is reported as 460, the Peak was determined as 490 and the Width is 75.

On to `N#Cc1ccc(-c2[nH]c(-c3ccccc3)cn3c(=O)c(Cc4ccco4)nc2-3)s1` [AS-262, 5-(2-(furan-2-ylmethyl)-3-oxo-6-phenyl-3,7-dihydroimidazo[1,2-a]pyrazin-8-yl)thiophene-2-carbonitrile], for which, in experiment [1], the “λmax, nm” value came to 574 nm. In experiment [2], the “shift” value was “shifted the NanoLuc® luciferase spectral properties to red”; the “NanoGlo (spectral peak, Table 4)” value amounted to 577; the “OptiMEM (spectral peak, Table 4)” value stood at 574. In addition, in experiment [2] (NanoGlo Buffer), the High is 634, the Low stood at 535, the Peak is on record as 577 and the Width turned out to be 99. Besides, in experiment [2] (OptiMEM + 0.1% FBS), the High was determined as 625, the Low is 532, the Peak is on record as 574 and the Width turned out to be 93.

As for `O=c1c(Cc2ccco2)nc2c(-c3ccnc4ccccc34)[nH]c(-c3ccccc3)cn1-2` [AS-310, 2-(furan-2-ylmethyl)-6-phenyl-8-(quinolin-4-yl)imidazo[1,2-a]pyrazin-3(7H)-one], the “λmax, nm” value in experiment [1] worked out at 571 nm. In experiment [2], the “shift” value is recorded as “shifted the NanoLuc® luciferase spectral properties to red”; the “NanoGlo (spectral peak, Table 4)” value was 574; the “OptiMEM (spectral peak, Table 4)” value turned out to be 571. In experiment [2] (NanoGlo Buffer), the High was 631, the Low is on record as 526, the Peak stood at 574 and the Width was determined as 105. Moreover, in experiment [2] (OptiMEM + 0.1% FBS), the High is on record as 631, the Low was found to be 520, the Peak was found to be 571 and the Width came out at 111.

For `Cn1c(C#N)ccc1-c1[nH]c(-c2ccccc2)cn2c(=O)c(Cc3ccco3)nc1-2` [AS-311, 5-(2-(furan-2-ylmethyl)-3-oxo-6-phenyl-3,7-dihydroimidazo[1,2-a]pyrazin-8-yl)-1-methyl-1H-pyrrole-2-carbonitrile], the “λmax, nm” value in experiment [1] is reported as 505 nm.

For the molecule `O=c1c(Cc2ccco2)nc2c(-c3ccnc(Br)c3)[nH]c(-c3ccccc3)cn1-2` [AS-314, 8-(2-bromopyridin-4-yl)-2-(furan-2-ylmethyl)-6-phenylimidazo[1,2-a]pyrazin-3(7H)-one], the “λmax, nm” value in experiment [1] was 538 nm.

`Nc1ccc(-c2cn3c(=O)c(Cc4ccco4)nc-3c(-c3ccnc4ccccc34)[nH]2)cc1` [AS-330, 6-(4-aminopheny1)-2-(furan-2-ylmethyl)-8-(quinolin-4-yl)imidazo[1,2-a]pyrazin-3(7H)-one]: the “λmax, nm” value in experiment [1] was determined as 583 nm.

`N#Cc1ccc(-c2[nH]c(-c3ccc(N)cc3)cn3c(=O)c(Cc4ccco4)nc2-3)s1` [AS-332, 5-(6-(4-aminophenyl)-2-(furan-2-ylmethyl)-3-oxo-3,7-dihydroimidazo[1,2-a]pyrazin-8-yl)thiophene-2-carbonitrile]: the “λmax, nm” value in experiment [1] is listed as 598 nm.

`N#Cc1ccc(-c2[nH]c3c(n4c(=O)c(Cc5ccco5)nc2-4)CCc2ccccc2-3)s1` [AS-340, 5-(2-(furan-2-ylmethyl)-3-oxo-3,5,6,11-tetrahydrobenzo[f]imidazo[1,2-a]quinoxalin-12-yl)thiophene-2-carbonitrile]: the “λmax, nm” value in experiment [1] came to 574 nm.

Take `O=c1c(Cc2ccco2)nc2c(-c3ccnc4ccccc34)[nH]c3c(n1-2)CCc1ccccc1-3` [AS-341, 2-(furan-2-ylmethyl)-12-(quinolin-4-yl)-5,11-dihydrobenzo[f]imidazo[1,2-a]quinoxalin-3(6H)-one]: the “λmax, nm” value in experiment [1] was found to be 583 nm.

On to `O=c1c(Cc2ccco2)nc2c(-c3ccnc(Cl)c3)[nH]c3c(n1-2)CCc1ccccc1-3` [AS-342, 12-(2-chloropyridin-4-yl)-2-(furan-2-ylmethyl)-5,11-dihydrobenzo[f]imidazo[1,2-a]quinoxalin-3(6H)-one], for which the “λmax, nm” value in experiment [1] is 538 nm.

`Oc1ccc(-c2cn3c(O)c(Cc4ccccc4)nc3c(Cc3ccccc3)n2)cc1` [Coelenterazine-H]: the “OptiMEM (spectral peak, Table 4)” value in experiment [3] (Renilla, OptiMEM) was determined as 487; in experiment [2], 460. The “RenillaGlo (spectral peak, Table 4)” value in experiment [3] (Renilla, RenillaGlo buffer) came to 490. For the same molecule, the High was found to be 541 in experiment [3] (Renilla/RenillaGlo); 535 in experiment [3] (Renilla, OptiMEM + 0.1% FBS); 508 in experiment [2] (NanoGlo Buffer); 502 in experiment [2] (OptiMEM + 0.1% FBS). Besides, the Low is 454 in experiment [3] (Renilla/RenillaGlo); 451 in experiment [3] (Renilla, OptiMEM + 0.1% FBS); 433 in experiment [2] (NanoGlo Buffer); 433 in experiment [2] (OptiMEM + 0.1% FBS). In addition, the Peak is recorded as 490 in experiment [3] (Renilla/RenillaGlo); 487 in experiment [3] (Renilla, OptiMEM + 0.1% FBS); 466 in experiment [2] (NanoGlo Buffer); 460 in experiment [2] (OptiMEM + 0.1% FBS). The Width turned out to be 87 in experiment [3] (Renilla/RenillaGlo); 84 in experiment [3] (Renilla, OptiMEM + 0.1% FBS); 75 in experiment [2] (NanoGlo Buffer); 69 in experiment [2] (OptiMEM + 0.1% FBS). Besides, the “more light with Renilla luciferase compared to Furimazine” value in experiment [4] (FIGS. 1A-1D) is reported as ~7 ×. Further, the Michaelis-Menten constant (Km) stood at 3.26 µM in experiment [4] (setting [6]) and 36.4 µM in experiment [5] (NanoLuc 4 ng/ml, Renilla Glo buffer, Michaelis-Menten fit, read-out: Km). The Vmax in experiment [4] (setting [6]) was 64,494; in experiment [5] (NanoLuc 4 ng/ml, Renilla Glo buffer, Michaelis-Menten fit), 19,790,000. In experiment [5] (FIGS. 1A-1D), the “light produced by NanoLuc luciferase compared to Renilla” value was “significantly more light than Renilla”. The “NanoGlo (spectral peak, Table 4)” value in experiment [2] turned out to be 466.

Take `Nc1cccc(-c2cn3c(=O)c(Cc4ccco4)nc-3c(Cc3ccccc3)[nH]2)c1` [JRW-0438, 6-(3-aminophenyl)-8-benzyl-2-(furan-2-ylmethyl)imidazo[1,2-a]pyrazin-3(7H)-one]: the “λmax, nm” value in experiment [1] is 487 nm.

Take `Nc1ccc(-c2cn3c(=O)c(Cc4ccco4)nc-3c(Cc3ccccc3)[nH]2)cc1` [JRW-0445, 6-(4-aminophenyl)-8-benzyl-2-(furan-2-ylmethyl)imidazo[1,2-a]pyrazin-3(7H)-one]: the “λmax, nm” value in experiment [1] is 502 nm.

For the molecule `Nc1ccccc1-c1cn2c(=O)c(Cc3ccco3)nc-2c(Cc2ccccc2)[nH]1` [JRW-0446, 6-(2-aminophenyl)-8-benzyl-2-(furan-2-ylmethyl)imidazo[1,2-a]pyrazin-3(7H)-one], in experiment [1], the “λmax, nm” value is listed as 487 nm.
